{"source": "patent EP2599789A1", "about": "“Marker and method for diagnosing diarrhea syndrome” (Bergen Teknologioverføring AS, priority 2011, dated 2013)", "key": {"[1]": {"system": "familial diarrhea syndrome patients", "experiment": "Metformin treatment trial (II), pilot study with increasing metformin doses", "assay_type": "in vivo, human", "settings": "four of five individuals", "method": "The dose given in the first metformin treatment trial (Table 2) was modest, and another pilot study with increasing metformin doses was started, including five individuals with high stool frequencies (22-42 per week). Patients with a history of ileus or inflammatory bowel disease were not included. Stool frequency was recorded continously for eight weeks. At day 1 of each week, blood samples were drawn for control of s-glucose, hemoglobin and creatinine. Symptoms and potential side-effects were followed closely by a weekly telephone call from the gastroenterologist.\nThe patients were without medication in week 1, and then the dose of metformin was increased each week as shown by the horizontal bars, starting at the beginning of week 2 and stopping by the end of week 5. Patient identifiers are listed in bold red letters in the panels."}, "[2]": {"system": "familial diarrhea syndrome patients", "experiment": "Metformin treatment trial (I), pilot study in patients", "assay_type": "in vivo, human", "method": "A pilot study (I) with metformin was performed in six individuals from branch A, with a low peroral dose of 500 mg twice daily. The trial lasted 10 weeks, and the patients registered number of stools (and texture) during week 1, 5 and 10. The first week was without treatment and the patients received 500 mg x 2 during weeks 2- 5. Weeks 6 - 10 were without treatment. […] Number of stools per week was reduced by 40% in two patients with high stool frequency (35-36 per week). Three patients reported that stools were firmer during treatment."}, "[3]": {"target": "mutant guanylate cyclase C GC-C S840I (p.Ser840Ile), transiently expressed in HEK293T cells (human)", "experiment": "cell-based or functional assay"}, "[4]": {"settings": "peroral 500 mg twice daily during weeks 2-5"}}, "note": "Several values for one entry are separate records, joined by “and”; a condition that tells them apart may be missing. Equal entries are not always repeated. Entries after “also recorded” stand apart in the source; their conditions may differ."}
{"compound": "CN(C)C(=N)NC(=N)N", "note": "[metformin, 1,1-dimethylbiguanide]", "values": [{"measurement": "dose-response effect on number of stools", "setting": "[1]; weeks 2-5", "value": "clear dose-response effect; also recorded: significant dose-response effect"}, {"measurement": "reduction in weekly average stools/day", "setting": "[1]; weeks 2-5", "value": "30-40%"}, {"measurement": "maximal reduction of number of stools", "setting": "[1]; weeks 2-5 (Fig. 4)", "value": "30-40%"}, {"measurement": "Side effects", "setting": "[2]; [4]", "value": "Intermittent nausea and None (4×) and Increased bloating"}, {"measurement": "Week 5 Stool firmness", "setting": "[2]; [4]", "value": "Increased"}, {"measurement": "Week 5 Stools per week", "setting": "[2]; peroral 500 mg twice daily during weeks 2-5, week 1 (baseline) and weeks 6-10 without treatment", "value": "13 (2×) and 18 and 20 (2×) and 22"}, {"measurement": "stools during treatment (patient-reported firmness)", "setting": "[2]; three of six patients, 500 mg twice daily", "value": "firmer"}, {"measurement": "Number of stools per week was reduced by", "setting": "[2]; two patients with high stool frequency (35-36 per week), 500 mg twice daily", "value": 40, "unit": "%"}]}
{"compound": "uroguanylin peptide (from UniProt Q16661 97-112)", "values": [{"measurement": "EC50 of uroguanylin for cGMP production, relative to the WT receptor (fold lower than WT)", "setting": "[3]", "value": 6}]}
